# How the values were obtained:
# HL-60 = assay: Antiproliferative activity against human HL60 cells assessed as reduction in cell viability incubated for 48 hrs by MTS assay; format: functional, cell-based; details: HL-60, 48 h
# SMMC-7721 [1] = assay: Antiproliferative activity against human SMMC7721 cells assessed as reduction in cell viability incubated for 48 hrs by MTS assay; format: functional, cell-based; details: SMMC-7721, 48 h
# MCF7 = assay: Antiproliferative activity against human MCF7 cells assessed as reduction in cell viability incubated for 48 hrs by MTS assay; format: functional, cell-based; details: MCF7, 48 h
# A549 = assay: Antiproliferative activity against human A549 cells assessed as reduction in cell viability incubated for 48 hrs by MTS assay; format: functional, cell-based; details: A549, 48 h
# SW480 = assay: Antiproliferative activity against human SW480 cells assessed as reduction in cell viability incubated for 48 hrs by MTS assay; format: functional, cell-based; details: SW480, 48 h
# SMMC-7721 [2] = assay: Potency index, ratio of DDP IC50 to compound IC50 for human SMMC7721 cells; format: functional
Structure (SMILES),IC50 (HL-60) [µM],IC50 (SMMC-7721 [1]) [µM],IC50 (MCF7) [µM],IC50 (A549) [µM],IC50 (SW480) [µM],Ratio IC50 (SMMC-7721 [2])
CC(C)CCC[C@@H](C)[C@H]1CC[C@H]2[C@@H]3CC=C4C[C@@H](O)CC[C@]4(C)[C@H]3CC[C@]12C [CHOLESTEROL],> 20,> 20,> 20,> 20,> 20,–
CC(C)CCC[C@@H](C)[C@H]1CC[C@H]2[C@@H]3CC=C4C[C@H](n5ccnc5)CC[C@]4(C)[C@H]3CC[C@]12C,> 20,> 20,> 20,> 20,> 20,–
C[C@@H]1CC[C@@]2(OC1)O[C@H]1C[C@H]3[C@@H]4C[C@H](n5ccnc5)[C@]56C[C@H]5CC[C@]6(C)[C@H]4CC[C@]3(C)[C@H]1[C@@H]2C,8.33,10,19.7,10.3,> 20,–
CC(C)CCC[C@@H](C)[C@H]1CC[C@H]2[C@@H]3CC=C4C[C@H](n5cc[n+](CC(=O)c6ccccc6)c5)CC[C@]4(C)[C@H]3CC[C@]12C,6.85,1.49,8.41,8.42,9.03,–
CC(C)CCC[C@@H](C)[C@H]1CC[C@H]2[C@@H]3CC=C4C[C@H](n5cc[n+](Cc6ccccc6Br)c5)CC[C@]4(C)[C@H]3CC[C@]12C,1.59,0.94,6.02,7.36,8.32,–
Cc1cc2c(cc1C)[n+](CC(=O)c1ccccc1)cn2[C@@H]1CC[C@@]2(C)C(=CC[C@H]3[C@@H]4CC[C@H]([C@H](C)CCCC(C)C)[C@@]4(C)CC[C@@H]32)C1,0.28,1.77,9.87,8.11,10.4,–
CC(C)CCC[C@@H](C)[C@H]1CC[C@H]2[C@@H]3CC=C4C[C@@H](n5cc[n+](Cc6ccc7ccccc7c6)c5)CC[C@]4(C)[C@H]3CC[C@]12C,5.39,1.41,8.35,6.95,9.29,–
CC(C)CCC[C@@H](C)[C@H]1CC[C@H]2[C@@H]3CC=C4C[C@@H](n5cc[n+](Cc6ccccc6Br)c5)CC[C@]4(C)[C@H]3CC[C@]12C,2.35,1.44,7.62,8.05,7.75,–
CC(=O)O[C@H]1CC[C@@]2(C)C(=CC[C@H]3[C@@H]4CC[C@H](n5cc[n+](Cc6ccc7ccccc7c6)c5)[C@@]4(C)CC[C@@H]32)C1,1.22,2.45,2.53,4.74,5.64,–
CC(C)CCC[C@@H](C)[C@H]1CC[C@H]2[C@@H]3C[C@H](n4cc[n+](CC(=O)c5ccccc5)c4)[C@]45C[C@H]4CC[C@]5(C)[C@H]3CC[C@]12C,1.53,1.29,6.98,7.28,6.06,–
Cc1cc2nc[nH]c2cc1C [DIMEDAZOL],> 20,> 20,> 20,> 20,> 20,–

# Now from value to compound, other results behind:
IC50 (HL-60) [µM],IC50 (SMMC-7721 [1]) [µM],IC50 (MCF7) [µM],IC50 (A549) [µM],IC50 (SW480) [µM],Structure (SMILES),Ratio IC50 (SMMC-7721 [2])
0.34,0.21,2.14,4.47,2.1,C[C@@H]1CC[C@@]2(OC1)O[C@H]1C[C@H]3[C@@H]4CC=C5C[C@H](n6c[n+](Cc7ccccc7Br)c7ccccc76)CC[C@]5(C)[C@H]4CC[C@]3(C)[C@H]1[C@@H]2C.[Br-],54
0.45,0.57,3.05,5.53,3.1,Cc1cc2c(cc1C)[n+](CC(=O)c1ccc3ccccc3c1)cn2[C@@H]1CC[C@@]2(C)C(=CC[C@H]3[C@@H]4C[C@@H]5O[C@]6(CC[C@@H](C)CO6)[C@@H](C)[C@@H]5[C@@]4(C)CC[C@@H]32)C1,–
1.03,3.46,2.26,7.27,4.01,C[C@@H]1CC[C@@]2(OC1)O[C@H]1C[C@H]3[C@@H]4C[C@H](n5cc[n+](CC(=O)c6ccc7ccccc7c6)c5)[C@]56C[C@H]5CC[C@]6(C)[C@H]4CC[C@]3(C)[C@H]1[C@@H]2C,–
1.28,7.28,5.21,7.03,6.46,C[C@@H]1CC[C@@]2(OC1)O[C@H]1C[C@H]3[C@@H]4C[C@H](n5cc[n+](CC(=O)c6cccc(Br)c6)c5)[C@]56C[C@H]5CC[C@]6(C)[C@H]4CC[C@]3(C)[C@H]1[C@@H]2C,–
1.19,1.81,2.49,2.55,2.59,C[C@@H]1CC[C@@]2(OC1)O[C@H]1C[C@H]3[C@@H]4CC=C5C[C@H](n6c[n+](CC(=O)c7ccccc7)c7ccccc76)CC[C@]5(C)[C@H]4CC[C@]3(C)[C@H]1[C@@H]2C,–
> 20,> 20,> 20,> 20,> 20,Cc1cc2ncn([C@@H]3CC[C@@]4(C)C(=CC[C@H]5[C@@H]6C[C@@H]7O[C@]8(CC[C@@H](C)CO8)[C@@H](C)[C@@H]7[C@@]6(C)CC[C@@H]54)C3)c2cc1C,–
2,3.5,4.38,9.69,5.59,C[C@]12CC[C@H]3[C@@H](CC=C4C[C@@H](O)CC[C@@]43C)[C@@H]1CC[C@@H]2n1cc[n+](CC(=O)c2ccc3ccccc3c2)c1,–
1.25,1.51,1.47,1.94,2.59,COc1ccc(C(=O)C[n+]2ccn([C@@H]3CC[C@@]4(C)C(=CC[C@H]5[C@@H]6C[C@@H]7O[C@]8(CC[C@@H](C)CO8)[C@@H](C)[C@@H]7[C@@]6(C)CC[C@@H]54)C3)c2)cc1,–
1.01,1.15,1.09,1.12,1.59,C[C@@H]1CC[C@@]2(OC1)O[C@H]1C[C@H]3[C@@H]4CC=C5C[C@H](n6cc[n+](Cc7ccc8ccccc8c7)c6)CC[C@]5(C)[C@H]4CC[C@]3(C)[C@H]1[C@@H]2C,–

# From ChEMBL document CHEMBL4340516, “Synthesis and antitumor activity of novel steroidal imidazolium salt derivatives” (Eur J Med Chem, 2019)
